Results reported in patent US20130040331A1, “LABEL-FREE METHODS RELATED TO hERG POTASSIUM ION [sequence]” (CORNING INCORPORATED, priority 2009, published 2013).
pEC50: −log10 of the molar value.

Experiments:
hERG channel [1] = target: T1, hERG channel (Homo sapiens, UniProt Q12809); details: oocytes, cited from earlier work
[2] = test system: mallotoxin DMR signal in HT29 cells; experiment: DMR modulation index against the mallotoxin DMR signal in HT29 cells; assay type: cell-based, human
From the text: A “molecule modulation index” or like terms is an index to display the ability of the molecule to modulate the biosensor output signals of the panels of markers acting on the panel of cells. The modulation index is generated by normalizing a specific biosensor output signal parameter of a response of a cell upon stimulation with a marker in the presence of a molecule against that in the absence of any molecule.
(§1) Epic® wavelength interrogation system (Corning Inc., Corning, N.Y.) was used for whole cell sensing. This system consists of a temperature-control unit, an optical detection unit, and an on-board liquid handling unit with robotics. The detection unit is centered on integrated fiber optics, and enables kinetic measures of cellular responses with a time interval of ˜15 sec.
(§2) Cells were plated in 384-well Epic® cell culture treated plate (Corning Cat#5040) 16-20 hours before assay (15000 cells/well for HEK293 and HEK-hERG cells, 30000 cells/well for HT29 cells). For both HEK-hERG and its parental HEK293 cells, each well was coated with 10 μl 5 μg/ml fibronectin. One hour before assay, cells were washed twice on a BioTek ELx405 Select washer with Hank's Balanced Salt Solution (HBSS) containing 20 mM Hepes. Cells were incubated in 40 μl/well HBSS at 28° C. inside the Epic system for one hour. For each assay, a 2-min baseline was initiated, followed by addition of 10 μl compound solutions (5×) and the cell responses were recorded continuously for one hour.
(§3) All studies were carried out at a controlled temperature (28° C.). At least two independent sets of experiments, each with at least three replicates, were performed. […] All dose-dependent responses were analyzed using non-linear regression method with the GraphPad Prism 5.
(§4) The DMR modulation index was generated by normalizing the mallotoxin DMR signal in either cell line in the presence of compound […] to its corresponding DMR signal in the absence of the compound, and the percentage of modulation was based on the amplitude of the mallotoxin DMR signal at a specific time (−18 min after stimulation for HEK-hERG cells, and ˜50 min after stimulation for HT29 cells, respectively). Mallotoxin is known to display polypharmacology. It is also known to be a protein kinase C (PKC) inhibitor; and PKC is a downstream signaling component of hERG activation. Thus, it would be difficult or almost impossible to assign the mode(s) of action of mallotoxin to be a hERG activator when either cell line is individually assayed with the label-free biosensor (i.e., Epic® system). […] However, combining the primary DMR profiles of a compound across the three cell lines tested with the modulation index of the compound against the mallotoxin responses in both HT29 and […] cells can correctly identify whether the compound is a hERG activator or not. The results shown in FIG. 1 indicate that indeed mallotoxin is a hERG activator; and the activation of hERG can result in detectable biosensor responses in the two hERG expressing cell lines.

HEK-hERG cells [3] = experiment: Label-free RWG biosensor (Epic) DMR assay, agonism mode, HEK-hERG cells stably expressing hERG; assay type: cell-based, human
Description: as §1, §2, §3
Three different types of cells: human colon cancerous cell line HT-29, HEK293 and its engineered HEK-hERG cell lines were used. HT-29 is known to endogenously express hERG channels. HEK293 is a native cell line without endogenously expressed hERG channels, while HEK-hERG is an engineered HEK293 cells having stably expressed hERG channels. Mallotoxin, a newly discovered hERG activator, was used to activate hERG channels at or near physiological conditions (i.e., 1×HBSS buffered conditions).

[4] = test system: hERG channel or hERG-associated signaling complex; experiment: Classification of hERG modulators by label-free biosensor profiles across three cell lines plus mallotoxin modulation index; assay type: cell-based, human
From the text: The traditional hERG ion channel assay involves assaying ion flux such as Rb^+ flux using ion absorption assays, or assaying hERG currents directly using patch clamping methods. Traditionally, a molecule which causes increase in Rb^+ flux and/or hERG currents is referred to a hERG activator, while a molecule which inhibits Rb^+ flux and/or hERG currents is referred to a hERG inhibitor. […] These hERG activators may or may not result in detectable biosensor signals in cells, using label-free biosensor cellular assays. A hERG activator that results in a detectable biosensor signal in a hERG expressing cell via hERG or hERG signaling complex is also referred to a label-free biosensor hERG activator.
Disclosed are methods of classifying a molecule for modulating hERG activity, comprising the steps: a. incubating a molecule individually with at least three different types of cells consisting of a native cell endogenously expressing hERG, an engineered cell stably expressing hERG and its parental cell without expressing hERG, and b. monitoring the molecule induced cellular response on each cell type with a label-free biosensor cellular assay,
Also disclosed are methods, further comprising as steps c) incubating a label-free biosensor hERG activator with each cell type in the presence of the molecule, d. monitoring the label-free biosensor hERG activator induced cellular response on each cell type in the presence of the molecule, e. generating a biosensor modulation index of the molecule against the label-free biosensor hERG activator induced biosensor signals in the two hERG expressing cell types.
as §4

hERG channel [5] = target: T1, hERG channel; details: 10 micromolar; cited from earlier work
HEK293 cells = experiment: Label-free RWG biosensor (Epic) DMR assay, agonism mode, native HEK293 cells without hERG; assay type: cell-based, human; details: compound at 16 micromolar
Description: as §1, §2
All studies were carried out at a controlled temperature (28° C.). At least two independent sets of experiments, each with at least three replicates, were performed. […] All dose-dependent responses were analyzed using non-linear regression method with the GraphPad Prism 5. […]

HEK-hERG cells [6] = assay type: cell-based, human; details: microscopic imaging, data not shown
Description: To confirm these findings, several follow-up studies were carried out.

T1 sequence (Q12809 whole entry): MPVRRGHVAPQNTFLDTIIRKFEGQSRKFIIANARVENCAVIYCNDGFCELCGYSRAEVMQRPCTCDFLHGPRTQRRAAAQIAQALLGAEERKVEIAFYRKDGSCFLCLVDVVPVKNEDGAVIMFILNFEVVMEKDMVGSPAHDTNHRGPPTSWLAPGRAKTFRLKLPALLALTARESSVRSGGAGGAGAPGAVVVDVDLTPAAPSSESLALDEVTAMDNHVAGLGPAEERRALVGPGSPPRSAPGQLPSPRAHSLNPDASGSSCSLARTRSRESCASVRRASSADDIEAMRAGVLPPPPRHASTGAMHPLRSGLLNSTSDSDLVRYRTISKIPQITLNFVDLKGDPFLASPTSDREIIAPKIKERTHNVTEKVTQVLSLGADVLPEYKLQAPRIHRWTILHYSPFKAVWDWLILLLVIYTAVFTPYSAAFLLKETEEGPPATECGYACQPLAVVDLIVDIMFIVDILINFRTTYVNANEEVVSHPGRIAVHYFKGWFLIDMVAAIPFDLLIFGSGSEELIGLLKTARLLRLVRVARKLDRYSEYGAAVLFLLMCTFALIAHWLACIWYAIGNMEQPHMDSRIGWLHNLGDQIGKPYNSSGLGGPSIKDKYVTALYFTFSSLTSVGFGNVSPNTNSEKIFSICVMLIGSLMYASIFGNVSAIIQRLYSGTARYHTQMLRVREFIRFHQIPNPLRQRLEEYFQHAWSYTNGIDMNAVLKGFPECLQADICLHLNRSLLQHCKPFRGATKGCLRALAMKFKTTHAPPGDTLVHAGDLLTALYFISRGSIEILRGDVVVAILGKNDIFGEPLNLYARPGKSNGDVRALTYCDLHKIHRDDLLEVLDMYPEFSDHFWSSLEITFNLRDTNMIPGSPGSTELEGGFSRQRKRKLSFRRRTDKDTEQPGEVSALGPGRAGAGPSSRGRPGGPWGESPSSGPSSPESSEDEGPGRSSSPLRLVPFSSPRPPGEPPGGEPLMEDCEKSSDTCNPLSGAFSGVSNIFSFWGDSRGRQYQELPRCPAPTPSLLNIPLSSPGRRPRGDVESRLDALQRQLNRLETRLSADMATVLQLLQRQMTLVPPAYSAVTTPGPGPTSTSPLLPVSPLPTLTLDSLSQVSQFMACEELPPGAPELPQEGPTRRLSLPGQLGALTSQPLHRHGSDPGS

| SMILES | amplitude of outward currents evoked by depolarizing pulses (hERG channel [1]; 100 to 500 μM) | activation and deactivation rate of hERG channels (hERG channel [1]) | modulation index against mallotoxin in HT29 cells ([2]; compound 10 micromolar, mallotoxin 16 micromolar, amplitude ~50 min after stimulation) [%] | modulation of the mallotoxin DMR signal in HT29 cells ([2]; compound at 10 micromolar, mallotoxin 16 micromolar) | DMR signal in HEK-hERG cells (HEK-hERG cells [3]; compound at 10 μM) | hERG pathway activity class by label-free biosensor [4] | shift of half maximal activation voltage (V1/2) to the hyperpolarizing direction (hERG channel [5]) | modulation of the mallotoxin DMR signal in HT29 cells ([2]; pretreatment with 16 micromolar compound, then 16 micromolar mallotoxin) | pEC50 (HEK-hERG cells [3]; amplitudes at 18 min after stimulation, read-out: apparent EC50 of dose-dependent DMR signal in HEK-hERG cells) | DMR signal in HEK-hERG cells (HEK-hERG cells [3]; compound at 16 micromolar) | DMR signal in HEK293 cells (HEK293 cells) | cell toxicity at high doses (HEK-hERG cells [6]) |
| --- | --- | --- | --- | --- | --- | --- | --- | --- | --- | --- | --- | --- |
| O=C(O)c1ccccc1Nc1cccc(C(F)(F)F)c1 [flufenamic acid] | enhanced the amplitude of outward currents | accelerated the activation rate of hERG channels and decelerated their deactivation | −90 | selectively attenuated | robust DMR signals | hERG pathway activator | – | – | – | – | – | – |
| CC(=O)c1c(O)c(C)c(O)c(Cc2c(O)c3c(c(C(=O)/C=C/c4ccccc4)c2O)OC(C)(C)C=C3)c1O [mallotoxin] | – | – | – | – | – | label-free hERG pathway activator | more than 25 mV | completely caused the desensitization | ~4.60 | robust DMR signal | net-zero DMR signal | caused cell apoptosis |
